Measured values published in BindingDB's records for doi:10.1016/s0014-2999(98)00246-5 (The Royal Danish School of Pharmacy, 1998).

Tests used:
[1] = target: Metabotropic glutamate receptor 1 (Rattus norvegicus, UniProt P23385)
[2] = target: Metabotropic glutamate receptor 5 (Rattus norvegicus, UniProt P31424)
[3] = target: Metabotropic glutamate receptor 4 (Rattus norvegicus, UniProt P31423)
[4] = target: Metabotropic glutamate receptor 2 (Homo sapiens, UniProt Q14416)

Measured: Ki

Chain of Metabotropic glutamate receptor 5 (P31424 whole entry): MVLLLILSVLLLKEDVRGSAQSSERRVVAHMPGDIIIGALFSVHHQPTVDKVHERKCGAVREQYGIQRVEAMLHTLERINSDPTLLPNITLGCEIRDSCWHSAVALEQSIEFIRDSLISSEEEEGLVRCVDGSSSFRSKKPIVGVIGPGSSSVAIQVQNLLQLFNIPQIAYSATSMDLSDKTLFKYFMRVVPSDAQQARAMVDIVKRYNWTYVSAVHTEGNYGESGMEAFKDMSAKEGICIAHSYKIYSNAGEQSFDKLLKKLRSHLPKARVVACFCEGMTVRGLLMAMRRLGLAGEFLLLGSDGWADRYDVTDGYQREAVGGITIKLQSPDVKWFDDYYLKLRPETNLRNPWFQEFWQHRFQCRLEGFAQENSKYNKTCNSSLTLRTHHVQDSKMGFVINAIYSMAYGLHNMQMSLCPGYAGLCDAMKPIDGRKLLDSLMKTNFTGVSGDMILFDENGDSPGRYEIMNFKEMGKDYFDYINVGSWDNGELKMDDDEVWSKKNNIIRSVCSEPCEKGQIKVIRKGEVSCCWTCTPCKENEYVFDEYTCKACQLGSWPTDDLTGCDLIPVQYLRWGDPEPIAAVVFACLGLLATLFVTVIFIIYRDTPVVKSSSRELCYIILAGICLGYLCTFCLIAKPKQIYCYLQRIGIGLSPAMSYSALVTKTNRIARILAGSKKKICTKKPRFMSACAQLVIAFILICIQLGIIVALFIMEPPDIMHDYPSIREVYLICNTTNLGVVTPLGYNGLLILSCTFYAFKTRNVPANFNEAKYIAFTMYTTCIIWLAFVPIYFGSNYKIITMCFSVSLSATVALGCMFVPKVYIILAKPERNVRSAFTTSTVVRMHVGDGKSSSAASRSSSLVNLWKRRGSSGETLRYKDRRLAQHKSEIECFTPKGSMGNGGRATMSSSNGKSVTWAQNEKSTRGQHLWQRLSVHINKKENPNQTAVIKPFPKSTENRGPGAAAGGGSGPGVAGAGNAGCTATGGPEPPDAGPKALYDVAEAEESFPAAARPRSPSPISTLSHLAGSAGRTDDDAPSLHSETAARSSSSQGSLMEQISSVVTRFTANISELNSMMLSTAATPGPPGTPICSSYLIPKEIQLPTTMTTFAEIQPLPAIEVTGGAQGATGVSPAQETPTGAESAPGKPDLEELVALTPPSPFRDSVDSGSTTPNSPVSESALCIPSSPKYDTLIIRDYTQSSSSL
Chain of Metabotropic glutamate receptor 1 (P23385 whole entry): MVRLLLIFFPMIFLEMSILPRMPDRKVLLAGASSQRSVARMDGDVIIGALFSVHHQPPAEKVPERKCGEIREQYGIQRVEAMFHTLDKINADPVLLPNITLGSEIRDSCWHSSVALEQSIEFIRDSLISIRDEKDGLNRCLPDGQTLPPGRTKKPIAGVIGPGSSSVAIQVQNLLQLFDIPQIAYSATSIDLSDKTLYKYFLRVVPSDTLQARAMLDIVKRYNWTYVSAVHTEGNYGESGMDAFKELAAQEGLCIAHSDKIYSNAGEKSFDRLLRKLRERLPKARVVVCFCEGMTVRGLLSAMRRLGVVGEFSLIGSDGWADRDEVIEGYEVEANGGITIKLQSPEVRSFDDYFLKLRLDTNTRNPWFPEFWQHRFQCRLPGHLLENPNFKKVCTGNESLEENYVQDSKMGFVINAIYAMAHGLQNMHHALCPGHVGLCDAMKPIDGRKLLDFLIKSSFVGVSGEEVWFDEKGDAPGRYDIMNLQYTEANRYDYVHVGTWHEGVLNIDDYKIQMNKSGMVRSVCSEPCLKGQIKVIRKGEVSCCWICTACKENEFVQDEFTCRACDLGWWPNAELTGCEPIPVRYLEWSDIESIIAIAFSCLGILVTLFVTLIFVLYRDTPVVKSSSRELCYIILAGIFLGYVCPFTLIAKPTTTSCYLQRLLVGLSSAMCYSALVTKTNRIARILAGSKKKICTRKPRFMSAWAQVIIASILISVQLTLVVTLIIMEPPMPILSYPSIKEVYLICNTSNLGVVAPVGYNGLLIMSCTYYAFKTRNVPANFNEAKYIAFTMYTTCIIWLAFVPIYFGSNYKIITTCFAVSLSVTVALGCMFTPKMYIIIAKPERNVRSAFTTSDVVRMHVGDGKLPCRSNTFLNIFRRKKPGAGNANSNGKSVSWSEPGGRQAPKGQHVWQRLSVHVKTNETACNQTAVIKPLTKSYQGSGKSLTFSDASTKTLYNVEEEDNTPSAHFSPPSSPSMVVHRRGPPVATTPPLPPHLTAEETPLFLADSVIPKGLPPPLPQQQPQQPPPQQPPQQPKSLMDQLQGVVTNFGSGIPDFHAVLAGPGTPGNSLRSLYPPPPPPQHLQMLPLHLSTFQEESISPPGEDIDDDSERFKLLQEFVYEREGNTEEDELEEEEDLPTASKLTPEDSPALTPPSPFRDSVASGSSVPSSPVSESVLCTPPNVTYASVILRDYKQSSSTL
Chain of Metabotropic glutamate receptor 4 (P31423 whole entry): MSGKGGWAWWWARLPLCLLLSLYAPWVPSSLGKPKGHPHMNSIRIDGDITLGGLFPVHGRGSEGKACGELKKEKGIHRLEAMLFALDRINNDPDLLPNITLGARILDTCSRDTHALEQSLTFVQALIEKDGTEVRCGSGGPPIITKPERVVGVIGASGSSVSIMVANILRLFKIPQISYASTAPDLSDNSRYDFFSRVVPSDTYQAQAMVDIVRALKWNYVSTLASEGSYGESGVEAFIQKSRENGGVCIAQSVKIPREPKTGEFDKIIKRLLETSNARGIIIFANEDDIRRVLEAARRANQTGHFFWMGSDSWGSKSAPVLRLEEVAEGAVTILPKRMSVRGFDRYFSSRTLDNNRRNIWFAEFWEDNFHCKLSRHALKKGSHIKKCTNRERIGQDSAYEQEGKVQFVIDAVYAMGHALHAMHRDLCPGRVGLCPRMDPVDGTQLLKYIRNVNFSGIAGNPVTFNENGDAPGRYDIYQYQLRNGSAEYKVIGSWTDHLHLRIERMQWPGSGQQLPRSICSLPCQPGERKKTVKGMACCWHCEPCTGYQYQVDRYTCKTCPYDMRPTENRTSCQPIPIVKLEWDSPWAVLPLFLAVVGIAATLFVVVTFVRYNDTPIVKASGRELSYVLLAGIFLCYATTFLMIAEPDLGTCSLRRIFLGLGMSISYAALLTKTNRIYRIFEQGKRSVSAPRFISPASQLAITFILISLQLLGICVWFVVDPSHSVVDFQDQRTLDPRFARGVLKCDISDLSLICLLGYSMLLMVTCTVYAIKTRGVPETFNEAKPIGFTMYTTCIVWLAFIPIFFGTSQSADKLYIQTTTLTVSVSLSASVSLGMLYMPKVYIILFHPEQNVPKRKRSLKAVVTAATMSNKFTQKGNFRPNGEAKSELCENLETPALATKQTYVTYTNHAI
Chain of Metabotropic glutamate receptor 2 (Q14416 whole entry): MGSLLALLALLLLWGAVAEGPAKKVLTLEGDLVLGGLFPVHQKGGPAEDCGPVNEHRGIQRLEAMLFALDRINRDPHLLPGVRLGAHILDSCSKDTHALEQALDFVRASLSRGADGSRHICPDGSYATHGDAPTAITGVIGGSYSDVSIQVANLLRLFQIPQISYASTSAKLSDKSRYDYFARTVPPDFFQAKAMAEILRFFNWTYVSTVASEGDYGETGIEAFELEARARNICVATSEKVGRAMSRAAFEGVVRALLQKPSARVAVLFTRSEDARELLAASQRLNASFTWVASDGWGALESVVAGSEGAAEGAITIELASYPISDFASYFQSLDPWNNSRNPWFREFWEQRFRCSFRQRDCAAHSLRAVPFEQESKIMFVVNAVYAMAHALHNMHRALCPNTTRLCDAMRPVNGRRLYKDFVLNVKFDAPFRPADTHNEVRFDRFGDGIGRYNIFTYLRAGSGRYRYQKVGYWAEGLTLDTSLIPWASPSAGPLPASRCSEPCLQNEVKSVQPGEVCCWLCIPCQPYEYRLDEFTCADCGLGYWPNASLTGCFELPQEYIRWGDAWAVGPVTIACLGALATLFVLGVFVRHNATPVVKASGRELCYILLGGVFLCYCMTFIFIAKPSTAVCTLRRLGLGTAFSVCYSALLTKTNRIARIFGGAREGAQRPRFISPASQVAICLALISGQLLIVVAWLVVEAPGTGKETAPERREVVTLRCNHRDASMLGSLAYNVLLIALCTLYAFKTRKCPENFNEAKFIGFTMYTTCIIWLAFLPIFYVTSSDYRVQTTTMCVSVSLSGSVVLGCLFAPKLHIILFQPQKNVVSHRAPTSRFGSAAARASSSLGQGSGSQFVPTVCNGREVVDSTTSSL

N[C@H](C(=O)O)c1ccc(C(=O)O)cc1 [4-((S)-Amino-carboxy-methyl)-benzoic acid]
> 10 µM: [1] | [2]

NC(C(=O)O)c1cc(=O)[nH]o1 (stereo unspecified) [Amino-(3-hydroxy-isoxazol-5-yl)-acetic acid(Ibotenic acid)]
> 10 µM: [3] | [1] | [2]

Cc1c(C[C@H](N)C(=O)O)o[nH]c1=O [(2S)-2-amino-3-(3-hydroxy-4-methyl-1,2-oxazol-5-yl)propanoic acid]
> 10 µM: [3] | [2] | [4]

Cc1c(C[C@@H](N)C(=O)O)o[nH]c1=O [(S)-4-Methylhomoibotenic acid]
> 10 µM: all assays above

CCCCc1c(C[C@H](N)C(=O)O)o[nH]c1=O [(R)-Bu-HIBO]
> 10 µM: all assays above

N[C@@H](Cc1o[nH]c(=O)c1Br)C(=O)O [NSC_2733518]
> 10 µM: all assays above

N[C@H](Cc1onc(O)c1Br)C(=O)O [NSC_2733518]
> 10 µM: all assays above

N[C@@H](CCC(=O)O)C(=O)O [L-Glutamic acid]
> 10 µM: [3]

N[C@H](CCCC(=O)O)C(=O)O [CAS_542-32-5]
> 10 µM: all assays above

N[C@H](Cc1cc(=O)[nH]o1)C(=O)O [CAS_194385]
> 10 µM: all assays above

N[C@@H](Cc1cc(=O)[nH]o1)C(=O)O [CAS_194385]
> 10 µM: all assays above

CCCCc1c(O)noc1C[C@@H](N)C(=O)O [CAS_77006-30-5]
> 10 µM: all assays above
